# Test results reported in patent publication US20200405699A1, “TREATING SICKLE CELL DISEASE WITH A PYRUVATE KINASE R ACTIVATING COMPOUND” (FORMA Therapeutics, Inc., priority 2018, published 2020).
# Key:
# [1] = PK/PD study in wild type mice, exposure; type: in vivo, Balb/c mice; settings: oral
# Description: Two pharmacokinetic (PK)/phamacodynamic (PD) studies were conducted in Balb/c mice that were administered Compound 1 once daily by oral gavage (formulated in 10% Cremophor EL/10% PG/80% DI water) for 7 days (QD×7) at doses of 0 (vehicle), 3.75, 7.5, 15, 30, 60 mg/kg (Study 1); 0 (vehicle), 7.5, 15, 30, 60, 120, or 240 mg/kg (Study 2). On the 7th day, whole blood was collected 24 hours after dosing and snap frozen. Samples were later thawed and analyzed by LC/MS for 2,3-DPG and ATP levels.
# PKR-R510Q = PKR-R510Q (Homo sapiens, UniProt P30613, R510Q); assay: Enzyme assay of Example 3 (kinetic parameters, activation), PKR-R510Q; type: biochemical; settings: for Vmax (normalized): 2 μM Compound 1, normalized within row
# Chain of PKR-R510Q (P30613 whole entry R510Q): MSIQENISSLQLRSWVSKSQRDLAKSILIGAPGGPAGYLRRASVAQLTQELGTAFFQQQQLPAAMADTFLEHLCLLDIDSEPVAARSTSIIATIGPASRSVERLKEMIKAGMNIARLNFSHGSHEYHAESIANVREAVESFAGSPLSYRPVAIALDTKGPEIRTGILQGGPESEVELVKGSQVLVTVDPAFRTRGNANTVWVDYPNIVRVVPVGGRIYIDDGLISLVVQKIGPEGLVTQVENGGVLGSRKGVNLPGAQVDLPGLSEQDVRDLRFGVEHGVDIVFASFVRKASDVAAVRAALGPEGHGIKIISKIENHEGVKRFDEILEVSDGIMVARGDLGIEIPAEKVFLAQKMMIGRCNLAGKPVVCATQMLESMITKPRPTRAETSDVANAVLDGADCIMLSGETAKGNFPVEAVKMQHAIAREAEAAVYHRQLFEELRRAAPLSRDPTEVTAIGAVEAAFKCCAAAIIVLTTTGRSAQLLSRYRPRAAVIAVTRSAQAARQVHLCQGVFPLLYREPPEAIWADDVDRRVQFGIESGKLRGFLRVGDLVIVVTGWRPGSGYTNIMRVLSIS
# Description: (§1) Tests were conducted in the presence and absence of fructose-1,6-bisphosphate (FBP), a known allosteric activator of PKR.
# wt-PKR = wt-PKR (Homo sapiens, UniProt P30613); assay: Enzyme assay of Example 3 (kinetic parameters, activation), wt-PKR; type: biochemical
# Chain of wt-PKR (P30613 whole entry): as the sequence (P30613 whole entry R510Q) above, with Q510R counted along it
# Description: as §1
# 2,3-DPG blood levels = assay: SAD/MAD study in healthy volunteers, blood 2,3-DPG levels (LC-MS/MS); type: in vivo, human
# Description: This is a first-in-human (FIH), Phase 1 study of Compound 1 that will characterize the safety, PK, and PD of Compound 1 after a single dose and after repeated dosing first in healthy adult volunteers and then in adolescents or adults with sickle cell disease. Initially, a dose range of Compound 1 in single ascending dose (SAD) escalation cohorts will be explored in healthy subjects. Enrollment of healthy subjects into 2-week multiple ascending dose (MAD) escalation cohorts will be initiated once the safety and PK from at least two SAD cohorts is available to inform the doses for the 2-week MAD portion of the study. The MAD cohorts will then run in parallel to the single dose cohorts. A single dose cohort is planned to understand food effects (FE) on the PK of Compound 1. […] Multiple dose studies in SCD subjects will then be initiated upon completion of MAD studies in healthy volunteers. Compound 1 will be administered in 25 mg and 100 mg tablets delivered orally.
# Four healthy SAD cohorts were evaluated at doses of 200, 400, 700, and 1000 mg, and four healthy MAD cohorts received 200 to 600 mg total daily doses for 14 days at QD or BID dosing (100 mg BID, 200 mg BID, 300 mg BID, and 400 mg QD). In the food effect (FE) cohort, 10 healthy subjects received 200 mg of Compound 1 QD with and without food.
# In the SAD cohorts, the subjects' blood 2,3-DPG levels were measured periodically after dosing by a qualified LC-MS/MS method for the quantitation of 2,3-DPG in blood. Decreased 2,3-DPG blood levels were observed 6 hours following a single dose of Compound 1 at all dose levels (earlier timepoints were not collected). Maximum decreases in 2,3-DPG levels generally occurred ˜24 hours after the first dose with the reduction sustained ˜48-72 hr postdose. Table 12 reports the median percentage change in 2,3-DPG blood levels, relative to baseline, measured over time in healthy volunteers after a single dose of Compound 1 (200 mg, 400 mg, 700 mg, or 1000 mg) or placebo. Accordingly, the median reduction in the concentration of 2,3-DPG, relative to baseline, was at least about 30% at all dose levels tested 24 hours after administration of the single dose.
# In the MAD cohorts, the subjects' blood 2,3-DPG levels were measured periodically after dosing by a qualified LC-MS/MS method for the quantitation of 2,3-DPG in blood. The maximum decrease in 2,3-DPG on Day 14 was 55% from baseline (median). […] Table 13 reports the median percentage change in 2,3-DPG blood levels, relative to baseline, measured over time after the first dose on days 1 and 14 in healthy volunteers who received daily doses of Compound 1 (100 mg BID, 200 mg BID, or 300 mg BID) or placebo for 14 days. Accordingly, the median reduction in the concentration of 2,3-DPG, relative to baseline, was at least about 25% at all dose levels tested 24 hours after administration of the first dose on day 1 and at least about 40% at all dose levels tested 24 hours after administration of the first dose on day 14.
# The following procedures are employed for the analysis of ATP and 2,3-DPG in human whole blood K2EDTA using a protein precipitation extraction procedure and analysis by LC-MS/MS.
# [2] = PEP at or below Km, rate of ATP formation
structure (smiles),measurement,setting,value
"O=C([C@H](CO)c1ccccc1)N1CC2=C(C1)CN(S(=O)(=O)c1cnc3c(c1)OCCO3)C2 (single isomer, unassigned) [Compound 1]",Dose dependence of exposure,[1],dose-proportional
same,Vmax (normalized),PKR-R510Q; 30 μM FBP,1.29
same,Vmax (normalized),PKR-R510Q; No FBP,1.56
same,AC50,PKR-R510Q; PEP at or below Km,< 100 nM
same,Maximum-fold Activation,PKR-R510Q; [2],<3.0
same,Vmax (normalized),"wt-PKR; 30 μM FBP, 2 μM Compound 1, normalized within row",1.16
same,Vmax (normalized),"wt-PKR; No FBP, 2 μM Compound 1, normalized to 1.00 relative to other values in same row",1.14
same,AC50,wt-PKR; PEP at or below Km,< 50 nM
same,Maximum-fold Activation,wt-PKR; [2],<2.0
same,"2,3-DPG levels after final dose","2,3-DPG blood levels; MAD cohorts, 72 hours after the final dose on Day 14",had not returned to baseline levels
same,"Mean maximum reduction in concentration of 2,3-DPG","2,3-DPG blood levels; MAD study",at least 50%
same,"Median reduction in concentration of 2,3-DPG relative to baseline","2,3-DPG blood levels; MAD, all dose levels, 24 hours after first dose on day 1",at least 25%
same,"Median reduction in concentration of 2,3-DPG relative to baseline","2,3-DPG blood levels; MAD, all dose levels, 24 hours after first dose on day 14",at least 40%
same,"Time of maximum decrease in 2,3-DPG levels after first dose","2,3-DPG blood levels; SAD cohorts",~24 h
same,"Time postdose to which 2,3-DPG reduction was sustained","2,3-DPG blood levels; SAD cohorts",48 to 72 h
same,"Mean maximum reduction in concentration of 2,3-DPG","2,3-DPG blood levels; SAD study",at least 40%
same,"Median reduction in concentration of 2,3-DPG relative to baseline","2,3-DPG blood levels; all single dose levels tested, 24 hours after administration",at least 30%
same,"PD half-life (2,3-DPG response)","2,3-DPG blood levels; healthy volunteers, calculated",~20 h
